This passage reports GI50 results from patent US20240059698A1 (Accutar Biotechnology Inc., priority 2022, published 2024).

What all share (assay type): cell-based
One assay concerns HCC827 cells. Nature of the assay: Cell growth inhibition (CellTiter-Glo), HCC827. The following applies: Homo sapiens, 72 h, 3 days. On the procedure:
2. Cell Growth Inhibition for HCC827, HCC827-SVD, HCC827-ASV, HCC827-YVMA, and A431.
HCC827(ATCC), HCC827-SVD, HCC827-ASV, and HCC827-YVMA cells were seeded in 96-well plates at 5000 cells/well in 90 μL of RPMI growth medium containing 10% FBS and 1% Penicillin Streptomycin. A431 (ATCC) cells were seeded in 96-well plates at 5000 cells/well in 90 μL of DMEM growth medium containing 10% FBS and 1% Penicillin Streptomycin. Cells were incubated at 37° C. overnight and then administered with 10 μL 10× test compounds prepared in the growth medium at various concentrations. After administration of the compounds, cells were incubated at 37° C. for 3 days. Before the CellTiter-Glo assay, the plates were equilibrated at room temperature for approximately 30 minutes. 100 ul of CellTiter-Glo reagent (Promega) was added to each well. The plates were then incubated at room temperature for 10 minutes and luminescence was recorded by the EnSight® multimode plate reader (PerkinElmer). Table 7 listed selected compounds in cellular growth assay.

Assay [1] relates to HCC827-SVD cells (human EGFR exon 20 insertion mutant D770_N771insSVD). Nature of the assay: Cell growth inhibition (CellTiter-Glo), HCC827-SVD. Particulars: 72 h, 3 days. The method in brief:
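Growth read by CellTiter-Glo luminescence after 3-day compound exposure at 37 °C. Engineered clonal HCC827 line (native EGFR deleted by CRISPR, mutant EGFR re-expressed) plated at 5000 cells/well in 10% FBS RPMI the night before dosing.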

Assay [2] has as its system HCC827-YVMA cells (human ERBB2 exon20 insertion mutant A775_G776ins YVMA). Briefly: Cell growth inhibition (CellTiter-Glo), HCC827-YVMA. The following applies: 72 h, HCC827-YVMA cells, 3 days, CellTiter-Glo, read-out: Cell growth inhibition, GI50 (nM) HCC827-YVMA. The method in brief:
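Growth in RPMI with 10% FBS was measured by CellTiter-Glo luminescence after 3 days at 37 °C with test compounds across a concentration range. The single-clone HCC827 lines carry a lentiviral YVMA (ERBB2) or ASV (EGFR) exon 20 insertion, with endogenous EGFR removed via sgRNA/Cas9.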
Background: In ATP-based viability assays light output follows the ATP content of the culture.

For orientation: GI50 means the concentration that inhibits growth by half. Consider `C=CC(=O)N1CCC(c2c[nH]c3ncnc(Nc4ccc(OCc5ccnc(Nc6ccccn6)c5)cc4F)c23)CC1` [Compound 93, 1-(4-(4-((2-fluoro-4-((2-(pyridin-2-ylamino)pyridin-4-yl)methoxy)phenyl)amino)-7H-pyrrolo[2,3-d]pyrimidin-5-yl)piperidin-1-yl)prop-2-en-1-one], for which the GI50 (in the assay on HCC827 cells; in assay [1]; in assay [2]) was 50 to 200 nM throughout.

Regarding `C=CC(=O)N1CCC(c2c[nH]c3ncnc(Nc4ccc(OCc5cccnc5)c(Cl)c4)c23)CC1` [Compound 121, 1-(4-(4-((3-chloro-4-(pyridin-3-ylmethoxy)phenyl)amino)-7H-pyrrolo[2,3-d]pyrimidin-5-yl)piperidin-1-yl)prop-2-en-1-one], the GI50 (with HCC827 cells; in assay [1]; in assay [2]) was < 50 nM in each case.

As to `C=CC(=O)N1CCC(c2c[nH]c3ncnc(Nc4ccc(Oc5ccnc(-c6cnn(C)c6)c5)cc4F)c23)CC1` [Compound 125, 1-(4-(4-((2-fluoro-4-((2-(1-methyl-1H-pyrazol-4-yl)pyridin-4-yl)oxy)phenyl)amino)-7H-pyrrolo[2,3-d]pyrimidin-5-yl)piperidin-1-yl)prop-2-en-1-one], the GI50 was > 1000 nM in the assay with HCC827 cells, 200 to 1000 nM in assay [1] and 200 to 1000 nM in assay [2].

Turning to `C=CC(=O)N1CCC(c2c[nH]c3ncnc(Nc4ccc(OCc5ncccn5)c(Cl)c4)c23)CC1` [Compound 128, 1-(4-(4-((3-chloro-4-(pyrimidin-2-ylmethoxy)phenyl)amino)-7H-pyrrolo[2,3-d]pyrimidin-5-yl)piperidin-1-yl)prop-2-en-1-one], the GI50 (in the assay on HCC827 cells; in assay [1]; in assay [2]) was < 50 nM in each case.

Consider `C=CC(=O)N1CCC(c2c[nH]c3ncnc(Nc4ccc(OCc5ccc(C#N)cn5)c(Cl)c4)c23)CC1` [Compound 101, 6-((4-((5-(1-acryloylpiperidin-4-yl)-7H-pyrrolo[2,3-d]pyrimidin-4-yl)amino)-2-chlorophenoxy)methyl)nicotinonitrile], for which the GI50 (in the assay with HCC827 cells; in assay [1]; in assay [2]) was 50 to 200 nM in each case.

Turning to `C=CC(=O)N1CCC(c2c[nH]c3ncnc(Nc4ccc(OCc5cccc(C)n5)c(Cl)c4)c23)CC1` [Compound 98, 1-(4-(4-((3-chloro-4-((6-methylpyridin-2-yl)methoxy)phenyl)amino)-7H-pyrrolo[2,3-d]pyrimidin-5-yl)piperidin-1-yl)prop-2-en-1-one], the 50% growth inhibitory concentration (GI50) (in the assay with HCC827 cells; in assay [1]; in assay [2]) was < 50 nM throughout.

`C=CC(=O)N1CCC(c2c[nH]c3ncnc(Nc4ccc(OCc5ccccn5)c(Cl)c4F)c23)CC1` [Compound 106, 1-[4-[4-[3-chloro-2-fluoro-4-(2-pyridylmethoxy)anilino]-7H-pyrrolo[2,3-d]pyrimidin-5-yl]-1-piperidyl]prop-2-en-1-one]: the GI50 (in the assay with HCC827 cells; in assay [1]; in assay [2]) was < 50 nM in each case.

`C=CC(=O)N1CCC(c2c[nH]c3ncnc(Nc4ccc(OCc5ccncn5)c(Cl)c4)c23)CC1` [Compound 114, 1-(4-(4-((3-chloro-4-(pyrimidin-4-ylmethoxy)phenyl)amino)-7H-pyrrolo[2,3-d]pyrimidin-5-yl)piperidin-1-yl)prop-2-en-1-one]: the GI50 (with HCC827 cells; in assay [1]; in assay [2]) was < 50 nM each time.

For the compound `C=CC(=O)N1CCC(c2c[nH]c3ncnc(Nc4ccc(OCc5ccccn5)cc4F)c23)CC1` [Compound 105, 1-(4-(4-((2-fluoro-4-(pyridin-2-ylmethoxy)phenyl)amino)-7H-pyrrolo[2,3-d]pyrimidin-5-yl)piperidin-1-yl)prop-2-en-1-one], the GI50 (with HCC827 cells; in assay [1]; in assay [2]) was < 50 nM in each case.

Regarding `C=CC(=O)N1CCC(c2c[nH]c3ncnc(Nc4ccc(OCc5cc(Cl)ccn5)c(Cl)c4)c23)CC1` [Compound 117, 1-(4-(4-((3-chloro-4-((4-chloropyridin-2-yl)methoxy)phenyl)amino)-7H-pyrrolo[2,3-d]pyrimidin-5-yl)piperidin-1-yl)prop-2-en-1-one], the concentration for 50% growth inhibition (GI50) (in the assay on HCC827 cells; in assay [1]; in assay [2]) was < 50 nM in each case.

Take `C=CC(=O)N1CCC(c2c[nH]c3ncnc(Nc4ccc(OCc5ccc(C(F)(F)F)cn5)c(Cl)c4)c23)CC1` [Compound 112, 1-(4-(4-((3-chloro-4-((5-(trifluoromethyl)pyridin-2-yl)methoxy)phenyl)amino)-7H-pyrrolo[2,3-d]pyrimidin-5-yl)piperidin-1-yl)prop-2-en-1-one]: the GI50 in the assay on HCC827 cells fell in the range of 50 to 200 nM; in assay [1], 200 to 1000 nM; in assay [2], 50 to 200 nM.

For the compound `C=CC(=O)N1CCC(c2c[nH]c3ncnc(Nc4ccc(OCc5cnn(C(C)C)c5)c(Cl)c4)c23)CC1` [Compound 108, 1-(4-(4-((3-chloro-4-((1-isopropyl-1H-pyrazol-4-yl)methoxy)phenyl)amino)-7H-pyrrolo[2,3-d]pyrimidin-5-yl)piperidin-1-yl)prop-2-en-1-one], the figures for the GI50 (with HCC827 cells; in assay [1]; in assay [2]) were 200 to 1000 nM, > 1000 nM and > 1000 nM, respectively.

`C=CC(=O)N1CCC(c2c[nH]c3ncnc(Nc4ccc(OCc5ccnc(-c6ccccc6)c5)cc4F)c23)CC1` [Compound 97, 1-(4-(4-((2-fluoro-4-((2-phenylpyridin-4-yl)methoxy)phenyl)amino)-7H-pyrrolo[2,3-d]pyrimidin-5-yl)piperidin-1-yl)prop-2-en-1-one]: the GI50 (in the assay with HCC827 cells; in assay [1]; in assay [2]) was 200 to 1000 nM throughout.

In the case of `C=CC(=O)N1CCC(c2c[nH]c3ncnc(Nc4ccc(OCc5ccc(F)cn5)c(Cl)c4)c23)CC1` [Compound 118, 1-(4-(4-((3-chloro-4-((5-fluoropyridin-2-yl)methoxy)phenyl)amino)-7H-pyrrolo[2,3-d]pyrimidin-5-yl)piperidin-1-yl)prop-2-en-1-one], the GI50 (with HCC827 cells; in assay [1]; in assay [2]) was < 50 nM each time.

Turning to `C=CC(=O)N1CCC(c2c[nH]c3ncnc(Nc4ccc(Oc5ccnc(N6CC7CC7C6)c5)cc4F)c23)CC1` (stereo not drawn) [Compound 131, 1-(4-(4-((4-((2-(3-azabicyclo[3.1.0]hexan-3-yl)pyridin-4-yl)oxy)-2-fluorophenyl)amino)-7H-pyrrolo[2,3-d]pyrimidin-5-yl)piperidin-1-yl)prop-2-en-1-one], the GI50 with HCC827 cells is > 1000 nM; in assay [1], 50 to 200 nM; in assay [2] it was 50 to 200 nM.

Turning to `C=CC(=O)N1CCC(c2c[nH]c3ncnc(Nc4ccc(Oc5ccnc(N6CC(C(F)(F)F)C6)c5)cc4F)c23)CC1` [Compound 107, 1-(4-(4-((2-fluoro-4-((2-(3-(trifluoromethyl)azetidin-1-yl)pyridin-4-yl)oxy)phenyl)amino)-7H-pyrrolo[2,3-d]pyrimidin-5-yl)piperidin-1-yl)prop-2-en-1-one], the GI50 was > 1000 nM in the assay on HCC827 cells, 200 to 1000 nM in assay [1] and 50 to 200 nM in assay [2].

Consider `C=CC(=O)N1CCC(c2c[nH]c3ncnc(Nc4ccc(Oc5ccnc(NC6CCC6)c5)cc4F)c23)CC1` [Compound 109, 1-[4-[4-[4-[[2-(cycloButylamino)-4-pyridyl]oxy]-2-fluoro-anilino]-7H-pyrrolo[2,3-d]pyrimidin-5-yl]-1-piperidyl]prop-2-en-1-one], for which the GI50 in the assay on HCC827 cells is < 50 nM; in assay [1], 50 to 200 nM; in assay [2], < 50 nM.

For the compound `C=CC(=O)N1CCC(c2c[nH]c3ncnc(Nc4ccc(OCc5cnc6n5CCCC6)c(Cl)c4)c23)CC1` [Compound 68, 1-(4-(4-((3-chloro-4-((5,6,7,8-tetrahydroimidazo[1,2-a]pyridin-3-yl)methoxy)phenyl)amino)-7H-pyrrolo[2,3-d]pyrimidin-5-yl)piperidin-1-yl)prop-2-en-1-one], the GI50 in assay [1] and in assay [2] was < 50 nM each time.

`C=CC(=O)N1CCC(c2c[nH]c3ncnc(Nc4ccc(Oc5ccnc(Nc6cnccn6)c5)cc4F)c23)CC1` [Compound 78, 1-(4-(4-((2-fluoro-4-((2-(pyrazin-2-ylamino)pyridin-4-yl)oxy)phenyl)amino)-7H-pyrrolo[2,3-d]pyrimidin-5-yl)piperidin-1-yl)prop-2-en-1-one]: the GI50 was in the range of 200 to 1000 nM in assay [1] and 50 to 200 nM in assay [2].

For the compound `C=CC(=O)N1CCC(c2c[nH]c3ncnc(Nc4ccc(Oc5ccnc(Nc6ccccn6)c5)c(Cl)c4)c23)CC1` [Compound 49, 1-(4-(4-((3-chloro-4-((2-(pyridin-2-ylamino)pyridin-4-yl)oxy)phenyl)amino)-7H-pyrrolo[2,3-d]pyrimidin-5-yl)piperidin-1-yl)prop-2-en-1-one], the values for the GI50 in assay [1] and in assay [2] were 50 to 200 nM and < 50 nM, respectively.
